# Results: ChEMBL document CHEMBL1159181, “Short and unexpectedly potent difluorostatone type inhibitors of HIV-1 protease” (Bioorg Med Chem Lett, 1993)
# Biological target: Human immunodeficiency virus type 1 protease (Human immunodeficiency virus 1, UniProt Q72874)
# Experiment: Tested for inhibitory activity against the recombinant HIV-1 protease
Structure (SMILES),Ki [µM],IC50 [µM]
CC(C)(C)CNC(=O)C(F)(F)C(=O)C(Cc1ccccc1)NC(=O)OCc1ccccc1 (stereo not drawn),0.65,
CC(C)C(NC(=O)OCc1ccccc1)C(=O)NC(Cc1ccccc1)C(=O)C(F)(F)C(=O)CCc1ccccc1 (stereo not drawn),,0.1
CC(C)(C)OC(=O)NC(C[Si](C)(C)C)C(=O)C(F)(F)C(=O)NCc1ccccc1 (stereo not drawn),2.5,
CC(C)CC(NC(=O)OCc1ccccc1)C(=O)NC(Cc1ccccc1)C(=O)C(F)(F)C(=O)NCc1ccccc1 (stereo not drawn),,750
CC(C)(C)[C@H](NC(=O)OCc1ccccc1)C(=O)NC(Cc1ccccc1)C(=O)C(F)(F)C(=O)NCc1ccccc1 (stereo partly drawn),,0.027
CCC[C@H](NC(=O)OCc1ccccc1)C(=O)NC(Cc1ccccc1)C(=O)C(F)(F)C(=O)NCc1ccccc1 (stereo partly drawn),400,
C[Si](C)(C)CNC(=O)C(F)(F)C(=O)C(Cc1ccccc1)NC(=O)OCc1ccccc1 (stereo not drawn),0.6,
NC(=O)C(F)(F)C(=O)C(Cc1ccccc1)NC(=O)OCc1ccccc1 (stereo not drawn),,300
CC(C)(C)OC(=O)NC(Cc1ccc(O)cc1)C(=O)C(F)(F)C(=O)NCc1ccccc1 (stereo not drawn),0.0003,
O=C(NC(Cc1ccccc1)C(=O)C(F)(F)C(=O)NCc1ccccc1)OCc1ccccc1 (stereo not drawn),0.0006,
O=C(NC(Cc1cccc2ccccc12)C(=O)C(F)(F)C(=O)NCc1ccccc1)OCc1ccccc1 (stereo not drawn),> 1000,
C[Si](C)(C)CC(NC(=O)OCc1ccccc1)C(=O)C(F)(F)C(=O)NCc1ccccc1 (stereo not drawn),12,
CC(C)C(NC(=O)OCc1ccccc1)C(=O)NC(Cc1ccccc1)C(O)C(F)(F)C(=O)NCc1ccccc1 (stereo not drawn),,5000
CN(Cc1ccccc1)C(=O)C(=O)C(=O)C(Cc1ccccc1)NC(=O)OCc1ccccc1 (stereo not drawn),5000,
CC(C)(C)OC(=O)NC(Cc1ccccc1)C(=O)C(F)(F)C(=O)NCc1ccccc1 (stereo not drawn),,0.004
CC(C)C(NC(=O)OCc1ccccc1)C(=O)NC(Cc1ccccc1)C(=O)C(F)(F)C(=O)NCc1ccccc1 (stereo not drawn),0.001,
CON[C@H](C(=O)N[C@H](C(=O)NC(=O)C(F)(F)C(=O)[C@H](Cc1ccccc1)NC(=O)[C@H](C)NC(=O)[C@H](C)NC(=O)[C@H](CO)NC(=O)OC(C)(C)C)C(C)C)C(C)C,160,
O=C(Cc1ccccc1)NCC(F)(F)C(=O)C(Cc1ccccc1)NC(=O)OCc1ccccc1 (stereo not drawn),60000,
